According to patent US8945595B2, “Insect repellent and attractants” (The Regents of the University of California, priority 2009, dated 2015):
Entries after “also recorded” stand apart in the source; their conditions may differ.

Legend:
wild-type Drosophila [1] = experiment: T-maze assay, avoidance to Drosophila stress odour (dSO); type: in vivo; settings: odourant added to dSO
Experimental: T-maze behavior assay: a, Mean Preference Index (PI) of wild-type flies, given a choice between room air in 15 ml tube and either 0.1 ml of pure CO2 in a 15 ml tube (CO2), or binary mixtures of 0.1 ml pure CO2 and 1-hexanol (CO2+6ol) at 10^−1 dilution or 2,3-butanedione (CO2+d4on) at 10^−2 dilution, also in 15 ml tubes (see Methods). b, Mean PI of mutant flies given choices as in a. c, Mean PI of wild-type flies given choices between room air and odour collected from 70 untreated flies (mock), or 70 vortexed “emitter” flies of Drosophila stress odour (dSO), or mixtures of dSO with indicated odourants. n=6-9 trials (˜40 flies each), error bars=s.e.m. (T-test, *P<0.0001, **P<0.005, ***P<0.05).
T-maze behavioral testing using Drosophila stress odour, CO2, and mixtures were using techniques known in the art, with some modifications. In particular, the entire headspace from 15 ml capped “emitter” or “mock” fly tubes was withdrawn using fresh syringes and needles and infused into fresh capped 15 ml plastic tubes immediately prior to use in the T-maze. […] The avoidance response was calculated as a Preference Index (PI)=(number of flies in test arm−number of flies in control arm)/(total number of flies in assay). […] The avoidance response was calculated as a Preference Index (PI)=(number of flies in test arm−number of flies in control arm)/(total number of flies in assay). […]

wild-type Drosophila [2] = experiment: T-maze choice assay, avoidance behavior to CO2, wild-type flies; type: in vivo; settings: 0.67% CO2; 1-hexanol 10^-1, 2,3-butanedione 10^-2
Experimental: (a) A t-maze is used to show preference to a test odor or to a solvent. Flies are starved 24 hrs prior to assay. All assays performed for 1-min in the dark. A negative preference index indicates avoidance. (a) Flies in a T-maze were offered a choice between a 15 ml tube infused with 0.1ml of CO2 prior to start of assay, and another that was infused with air. (b) wildtype and Or83b−/− flies were presented with CO2, a mixture of CO2 and 2,3-butanedione (d4on), or d4on alone. (c) Flies were exposed to 10 ul d4on 10^−2 for 1 min, allowed to recover for 2 min in clean air and then assayed for avoidance to CO2. A control exposure to 1 min of 2-methylphenol (2 mpol) at 10^−2 and then a recovery period of 2 min is also assayed for avoidance behavior to CO2. (d) Flies are exposed to d4on for 1 min, allowed to recover for 2 min, and then assayed for behavior to ethyl acetate (2AC). Behavior to 2AC without pre-exposure is also measured. […]
T-maze behavioral testing using Drosophila stress odour, CO2, and mixtures were using techniques known in the art, with some modifications. […] The avoidance response was calculated as a Preference Index (PI)=(number of flies in test arm−number of flies in control arm)/(total number of flies in assay). […] The avoidance response was calculated as a Preference Index (PI)=(number of flies in test arm−number of flies in control arm)/(total number of flies in assay). […]

Row | Compound | avoidance behavior to dSO (Preference Index) (wild-type Drosophila [1]) | avoidance behavior to CO2 (Preference Index) (wild-type Drosophila [2])
1 | CC(=O)C(C)=O [2,3-butanedione] | significantly reduced avoidance behavior; also recorded: completely abolished | reduction in mean avoidance behavior; also recorded: abolished
2 | CCCCCCO [1-hexanol] | significantly reduced avoidance behavior | reduction in mean avoidance behavior
